System: histamine induced nasal congestion

## NCCc1c[nH]cn1 [Histamine, histamine]
Group 1, 5 and 10 minutes post-histamine exposure
  nasal congestion and flow restriction pressure: progressive increase in nasal congestion and flow restriction pressure
Pilot study, no epinephrine, 60, 80 and 100 minute time points
  histamine induced congestion without epinephrine: remains elevated at significant levels

— patent US20190282497A1 (Bryn Pharma, LLC, priority 2018, published 2019)
